Data on twelve compounds can be found in paper PMC6864647, “Synthesis and Antiviral Activity of Novel 1,3,4-Thiadiazole Inhibitors of DDX3X” (Molecules, 2019).

Read-outs that look alike come from different tables or passages of the source.

Data set [1] deals with T1, DDX3X ATPase (Homo sapiens, UniProt O00571).
T1 construct: Recombinant his-tagged human full length DDX3X was cloned into the E. coli expression vector pET-30a(+); His tag; made in house; host or cells: Shuffle T7 E. coli
Kind of data set: DDX3X ATPase assay (ADP-Glo). Format: biochemical. The note with it: recombinant human DDX3X, 50 μM ATP, mean ± SD of three experiments; for Ki: read-out: DDX3X ATPase Ki (apparent dissociation constant for inhibitor binding). On the procedure:
Recombinant his-tagged human full length DDX3X was cloned into the E. coli expression vector pET-30a(+). Shuffle T7 E. coli cells were transformed with the plasmid and grown at 37 °C up to OD600 = 0.7. DDX3X expression was induced with 0.5 mM IPTG at 15 °C O/N. The cells were harvested by centrifugation, lysed, and the crude extract centrifuged at 100.000xg for 60 min. at 4 °C in a Beckman centrifuge before being loaded onto a FPLC Ni-NTA column (GE Healthcare). Column was equilibrated in Buffer A (50 mM Tris-HCl pH 8.0, 250 mM NaCl, 25 mM Imidazole, and 20% glycerol). After extensive washing in Buffer A, the column was eluted with a linear gradient in Buffer A from 25 mM to 250 mM Imidazole. Proteins in the eluted fractions were visualized on SDS-PAGE and then tested for the presence of DDX3X by Western blot with anti-DDX3X A300-475A(BETHYL) at 1:2000 dilution in 5% milk. Fractions containing the purest DDX3X protein were pooled and stored at −80 °C.
The ATPase assay was carried out by using the commercial kit Promega (Milan, Italy), ADP-Glo^TM Kinase Assay. Reaction was performed in 30 mM TrisHCl pH 8, 9 mM MgCl2, 0.05 mg/mL BSA, 50 μM ATP, and 4 μM of recombinant DDX3X. Reaction was performed following the ADP-Glo^TM Kinase Assay Protocol and luminescence was measured with MicroBeta TriLux (Perkin Elmer, Milan, Italy).

A short description of data set [2]: Cytotoxicity assay in H9 cells (CellTiter-Glo 2.0). The note with it: human; non-infected H9 cells, 72 h. The data set is classed as cell-based, human. On the procedure:
(§1) Cytotoxicity in H9 cells was determined by using the CellTiter-Glo 2.0 assay (Promega). H9 cells were seeded at 40,000 cells/well in duplicate in the presence of serial two-fold dilutions of compounds (range 200–1.56 μM) and incubated for 72 h. Cell viability was calculated by measuring cellular ATP as a marker of metabolically active cells through a luciferase based chemical reaction and expressed as the concentration that reduce cell viability by 50%.

Data set [3] concerns HIV-1 (NL4-3). The experiment in a line: Antiviral BiCycle assay, HIV-1 NL4-3 in H9 cells with TZM-bl readout. The data set is classed as cell-based. As to conditions: 72 h, then TZM-bl reporter cells 48 h; for IC50: Human immunodeficiency virus 1, NL43, H9 cells. On the procedure: The antiviral activity was evaluated by measuring the half maximal inhibitory concentration (IC50) values against the HIV-1 wild-type reference strain NL4-3 in a TZM-bl cell line based phenotypic assay, named BiCycle Assay. The method includes a first round of infection of human T cell lymphoma derived clone H9 at multiplicity of infection of 0.03 in the presence of serial dilution of compounds in a 96-well plate. After 72 h, 50 microliters of supernatants from each well were used to infect the TZM-bl cell line, which allow the quantitative analysis of HIV infection by measuring the expression of the luciferase gene integrated in the genome of the cells under the control of HIV-1 LTR promoter.
After 48 h, dose-response curves were generated by measuring reporter gene expression in each well by using the Bright-Glo Luciferase Assay (Promega) through the GloMax Discovery reader (Promega). Relative luminescence units measured in each well were elaborated with the GraphPad Software v.6.0 to calculate IC50 values. All the viruses and cell lines were obtained through the NIH AIDS Reagent Program (www.aidsreagent.org).

Data set [4] can be described thus: Water solubility assay. Format: physicochemical. As to conditions: 27 °C, thermodynamic from solid, 1 mg in 1 mL water. As for the experimental part:
[…] After 24 h of stirring at 27 °C, the mixture was filtered and the quantity of solubilized compound determined by LC-MS-MS. […] By contrast, esters 30 and 31 due to their lipophilicity have values outside the recommended range […].
The appropriate (1 mg) was added to 1 mL of water. The sample was shaken in a shaker bath at room temperature for 24–36 h. The suspensions were filtered through a 0.45 μm nylon filter (Acrodisc, Sigma Aldrich, Milan, Italy) and the solubilized compound determined by LC-MS-MS assay. The determination was performed in triplicate. For the quantification, an LC-MS system consisting of a Varian apparatus (Varian Inc., Palo Alto, CA, USA), including a vacuum solvent degassing unit, two pumps (212-LC), a Triple Quadrupole MSD (Mod. 320-LC) mass spectrometer with ES interface, and Varian MS Workstation System Control Vers. 6.9 software, was used. Chromatographic separation was obtained while using a 3 μm particle size Pursuit C18 column (50 × 2.0 mm) (Varian). Column was equilibrated in Buffer B (aqueous solution of 0.1% formic acid) and eluted with a linear increase from 0% to 70% gradient of Buffer A (ACN) for 10 min. and subsequent increase up to 98% for additional 5 min. The instrument operated in positive mode and the following parameters were used: injection volume 5 μL, flow rate 0.3 mL/min, detector 1850 V, drying gas pressure 25.0 psi, desolvation temperature 300.0 °C, nebulizing gas 45.0 psi, needle 5000 V, and shield 600 V. Nebulizer gas and drying gas was Nitrogen. Argon was the collision gas at a pressure of 1.8 mTorr in the collision cell. Single compound quantification was performed in comparison with standard calibration curves in methanol.

The nature of data set [5]: Parallel Artificial Membrane Permeability Assay (PAMPA). The data set is classed as in vitro ADME. As to conditions: pH 7.4, 5 h; for Papp at 5 h, 0.5 mM: room temperature, read-out: AppP (apparent permeability). On the procedure: Finally, we evaluated passive membrane permeability (AppP) while using Parallel Artificial Membrane Permeability Assay (PAMPA). The quantity of compound able to diffuse through a semipermeable artificial membrane was calculated by LC-MS-MS.
Donor solution (0.5 mM) was prepared by diluting 1 mM dimethylsulfoxide (DMSO) compound stock solution while using phosphate buffer (pH 7.4, 0.025 M). Filters were coated with 5 μL of a 1% (w/v) dodecane solution of phosphatidylcholine for intestinal permeability. Donor solution (150 μL) was added to each well of the filter plate. To each well of the acceptor plate was added 300 μL of solution (50% DMSO in phosphate buffer). All of the compounds were tested in three different plates on different days. The sandwich was incubated for 5 h at room temperature under gentle shaking. After the incubation time, the plates were separated, and samples were taken from both receiver and donor sides and analyzed while using LC with UV detection at 280 nm. LC analysis was performed with a PerkinElmer (series 200) instrument that was equipped with an UV detector (PerkinElmer 785A, UV/vis Detector). Chromatographic separation was conducted using a Polaris C18 column (150–4.6 mm, 5 μm particle size) at a flow rate of 0.8 mL min^−1 with a mobile phase composed of 60% ACN/40% H2O-formic acid 0.1% for all compounds. Permeability (Papp) was calculated according to the following equation with some modification to obtain permeability values in cm/s, (1) Papp=VDVA/(VD+VA)At−ln(1−r) where VA is the volume in the acceptor well, VD is the volume in the donor well (cm^3), A is the “effective area” of the membrane (cm^2), t is the incubation time (s), and r the ratio between drug concentration in the acceptor and equilibrium concentration of the drug in the total volume(VD + VA).
Drug concentration is estimated by using the peak area integration. Membrane retentions (%) were calculated according to the following equation:(2) %MR=[r−(D+A)]100/Eq where r is the ratio between drug concentration in the acceptor and equilibrium concentration, D, A, and Eq represented drug concentration in the donor, acceptor, and equilibrium solution, respectively.

In data set [6] the test system is H9 cells. Kind of data set: Cytotoxicity assay in H9 cells (CellTiter-Glo 2.0). Format: cell-based, human. The note with it: CC50 in H9 cells versus anti-HIV-1 IC50. As for the experimental part: as §1
[7] abbreviates: read-out: AqS (aqueous solubility).
Setting [8] is: read-out: AqS as Log of molar concentration (LogS) (converted).

T1 sequence (O00571 whole entry): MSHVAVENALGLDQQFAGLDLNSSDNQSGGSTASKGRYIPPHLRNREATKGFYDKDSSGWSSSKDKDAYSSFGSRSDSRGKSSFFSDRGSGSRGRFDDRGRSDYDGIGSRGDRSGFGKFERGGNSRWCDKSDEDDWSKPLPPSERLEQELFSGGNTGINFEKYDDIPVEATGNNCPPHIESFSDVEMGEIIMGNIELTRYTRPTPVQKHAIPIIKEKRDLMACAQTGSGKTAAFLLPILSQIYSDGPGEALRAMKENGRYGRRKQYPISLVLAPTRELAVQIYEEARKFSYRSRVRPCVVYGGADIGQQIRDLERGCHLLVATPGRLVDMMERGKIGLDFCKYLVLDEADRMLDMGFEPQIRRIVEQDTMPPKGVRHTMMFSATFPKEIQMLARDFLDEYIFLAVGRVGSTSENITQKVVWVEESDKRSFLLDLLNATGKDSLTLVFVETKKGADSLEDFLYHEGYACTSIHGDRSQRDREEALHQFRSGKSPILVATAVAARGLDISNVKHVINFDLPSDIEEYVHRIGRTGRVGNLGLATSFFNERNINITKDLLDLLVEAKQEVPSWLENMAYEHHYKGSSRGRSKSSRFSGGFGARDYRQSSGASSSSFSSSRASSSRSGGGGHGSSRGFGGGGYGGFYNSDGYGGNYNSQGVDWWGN

For the compound `COc1ccc(-c2nnc(N3C(=O)c4ccccc4C3=O)s2)cc1` [Compound 17, 2-(5-(4-Methoxyphenyl)-1,3,4-thiadiazol-2-yl)isoindoline-1,3-dione], in data set [1], the “DDX3X ATPase Ki (apparent dissociation constant for inhibitor binding)” value is “completely inactive” and the Ki was greater than 50 µM.
In turn, `COc1ccc(-c2nnc(NC(=O)c3ccccc3C(=O)O)s2)cc1` [Compound 23, 2-((5-(4-Methoxyphenyl)-1,3,4-thiadiazol-2-yl)carbamoyl)benzoic acid] displayed a CC50 at 72 h in data set [2] greater than 200 µM. For the same compound, in data set [3] (H9 cells), the “HIV-1 (NL4-3) IC50” value was “inactive”. The half-maximal inhibitory concentration (IC50) in data set [3] was greater than 50 µM. Further, the solubility at 24 h in data set [4] (setting [7]) was 3.3 µg/mL; in data set [4] (setting [8]), 9.33 µM. For the same compound, in data set [5], the “Percentage in parentheses beside AppP (membrane retention)” value (shortened to “Percentage in parentheses beside AppP”) was 0%. Besides, the Papp at 5 h, 0.5 mM in data set [5] was less than 0.1 ×10⁻⁶ cm/s. In data set [1], the Ki is 1.3 ± 0.2 µM.
With `O=C(O)c1ccccc1C(=O)Nc1nnc(-c2ccccc2Br)s1` [Compound 25, 2-((5-(2-Bromophenyl)-1,3,4-thiadiazol-2-yl)carbamoyl)benzoic acid], the “DDX3X ATPase Ki (apparent dissociation constant for inhibitor binding)” value in data set [1] is listed as “abolished”.
Turning to `CN(C)c1ccc(-c2nnc(NC(=O)c3ccccc3C(=O)O)s2)cc1` [Compound 27, 2-((5-(4-(Dimethylamino)phenyl)-1,3,4-thiadiazol-2-yl)carbamoyl)benzoic acid], the CC50 at 72 h in data set [2] stood at 130 µM. This compound also had an IC50 in data set [3] greater than 50 µM. In addition, the Ki in data set [1] worked out at 11.9 ± 1.9 µM.
In turn, `O=C(O)c1ccccc1C(=O)Nc1nnc(-c2ccccc2[N+](=O)[O-])s1` [Compound 28, 2-((5-(2-Nitrophenyl)-1,3,4-thiadiazol-2-yl)carbamoyl)benzoic acid] returned a CC50 at 72 h in data set [2] of 74 µM. Further, the “SI (selectivity index)” value in data set [6] worked out at 1.7. In addition, the midpoint of inhibition in data set [3], the IC50, lay at 42.3 ± 5.2 µM. Besides, the Ki in data set [1] came out at 18.3 ± 1.8 µM.
`COC(=O)c1ccccc1C(=O)Nc1nnc(-c2ccc(OC)cc2)s1` [Compound 29, Methyl 2-((5-(4-methoxyphenyl)-1,3,4-thiadiazol-2-yl)carbamoyl)benzoate] returned a CC50 at 72 h in data set [2] of 45 µM. Also, the solubility at 24 h in data set [4] (setting [7]) amounted to 0.5 µg/mL. In data set [4] (setting [8]), the solubility at 24 h is 1.35 µM. In addition, in data set [5], the “Percentage in parentheses beside AppP” value is reported as 36% and the Papp at 5 h, 0.5 mM turned out to be 0.7 ×10⁻⁶ cm/s. For the same compound, in data set [1], the Ki is 15.6 µM.
`CCOC(=O)c1ccccc1C(=O)Nc1nnc(-c2ccc(OC)cc2)s1` [Compound 30, Ethyl 2-((5-(4-methoxyphenyl)-1,3,4-thiadiazol-2-yl)carbamoyl)benzoate] gave a CC50 at 72 h in data set [2] greater than 200 µM. This compound also came in with a 50% inhibitory concentration (IC50) in data set [3] greater than 50 µM. The solubility at 24 h in data set [4] (setting [7]) is less than 0.1 µg/mL. In addition, the solubility at 24 h in data set [4] (setting [8]) is greater than 1 µM. Further, in data set [5], the “Percentage in parentheses beside AppP” value was 4.6% and the Papp at 5 h, 0.5 mM was determined as 2.1 ×10⁻⁶ cm/s. Also, the Ki in data set [1] was 20.1 ± 2.1 µM.
In turn, `CCCCOC(=O)c1ccccc1C(=O)Nc1nnc(-c2ccc(OC)cc2)s1` [Compound 31, Butyl 2-((5-(4-methoxyphenyl)-1,3,4-thiadiazol-2-yl)carbamoyl)benzoate] gave a CC50 at 72 h in data set [2] of 100 µM. Besides, it took 16 ± 10 µM to reach half-maximal inhibition in data set [3] (IC50). Besides, the solubility at 24 h was less than 0.1 µg/mL in data set [4] (setting [7]) and greater than 1 µM in data set [4] (setting [8]). In addition, in data set [5], the “Percentage in parentheses beside AppP” value came to 25.9%. Moreover, the Papp at 5 h, 0.5 mM in data set [5] is 6.1 ×10⁻⁶ cm/s. Moreover, in data set [1], the Ki was found to be 23.5 ± 2.5 µM.
As for `COC(=O)c1ccccc1C(=O)Nc1nnc(-c2ccccc2[N+](=O)[O-])s1` [Compound 32, Methyl 2-((5-(2-nitrophenyl)-1,3,4-thiadiazol-2-yl)carbamoyl)benzoate], the “DDX3X ATPase Ki (apparent dissociation constant for inhibitor binding)” value in data set [1] was “annulled enzymatic inhibition”.
For `O=C(Nc1nnc(-c2ccccc2[N+](=O)[O-])s1)c1ccccc1S(=O)(=O)O` [Compound 34, 2-((5-(2-Nitrophenyl)-1,3,4-thiadiazol-2-yl)carbamoyl)benzenesulfonic acid], in data set [2], the CC50 at 72 h turned out to be 110 µM. For the same compound, the IC50 in data set [3] was greater than 50 µM. Moreover, the Ki in data set [1] was 35.4 ± 3.5 µM.
The matching figures for `Nc1ccccc1-c1nnc(NC(=O)c2ccccc2S(=O)(=O)O)s1` [Compound 35, 2-((5-(2-Aminophenyl)-1,3,4-thiadiazol-2-yl)carbamoyl)benzenesulfonic acid]: 130 µM, greater than 50 µM and 20.1 ± 2.1 µM.
Regarding `Nc1ccccc1-c1nnc(NC(=O)c2ccccc2C(=O)O)s1` [Compound 36, 2-((5-(2-Aminophenyl)-1,3,4-thiadiazol-2-yl)carbamoyl)benzoic acid], the “DDX3X ATPase Ki (apparent dissociation constant for inhibitor binding)” value in data set [1] is “total loss of inhibitory capability”.
